Key:
Assay type in all cases: in vivo
[1] = tested on: dendritic spines; experiment: Golgi staining, dendritic spines of APP knockout mice; conditions: hippocampal CA1 neurons; 30 mg/kg, 2 weeks
From the text: Animals. Wild-type C57BL/6J and APP knockout mice (B6.12957-APPtm1Dbo/J) were obtained from Jackson Laboratories (Bar Harbor, Me., USA). CD1 mice were obtained from Vivasource. All animal experiments were approved by the Institutional Animal Care and Use Committees at Georgetown University and Johns Hopkins University. All animals were maintained according to protocols approved by the Animal Welfare and Use Committee at both institutes.
Golgi staining and morphological analysis of dendritic spines. To analyze dendritic spine density and morphology in brain, FD RAPID GOLGISTAIN KIT™ (FD NeuroTechnologies, Ellicott City, Md., USA) was used. Dissected mouse brains were immersed in Solution A and B for 2 weeks in dark conditions at room temperature and transferred into Solution C for 24 h at 4° C. Brains were sliced using a VT1000S Vibratome (Leica, Bannockburn, Ill., USA) at 150 μm thickness. Dendritic images were acquired by Axioplan 2 (Zeiss, Oberkochen, Germany) under brightfield microscopy. Spine width, length, and linear density of cortical layers II/III and CA1 of hippocampus were measured using Scion image software (Scion Corporation, Frederick, Md., USA). Images were coded, and dendritic spines counted in a blinded manner. Spines from 0.2 to 2 μm in length were included for analysis. All morphological analysis was done blind to experimental conditions. […]

[2] = tested on: RasGRF1, GluA1, GluA2, p-ERK, p-Elk; experiment: Western blot of cortex and hippocampus, 3× Tg AD mice
Description: Western blot and analysis. 3× Tg AD mice were injected with 30 mg/kg BTA-EG4 or vehicle daily for 2 weeks. After 2 weeks, the cortex and hippocampus were dissected and homogenized with RIPA buffer. Brain lysates were reduced, boiled, and run on a polyacrylamide gel followed by transfer onto nitrocellulose membrane and incubation in the following primary antibodies: rabbit anti-RasGRF1 (Santa Cruz, C-20), rabbit anti-GluA1 (Millipore, ab1504),mouse anti-GluA2 (Neuromab), rabbit anti-p-ERK (Invitrogen, 36880), or p-Elk (Cell Signal, 9181). Primary antibodies were applied overnight, washed with TBS buffer (3 washes, 5 min each), and HRP conjugated secondary antibodies were applied for 1 h. After 1 h, membranes were washed with TBS buffer (3 washes, 5 min each) and proteins were visualized by affixing the blots to autoradiography film. The density of each band was then quantified using ImageJ software (National Institutes of Health, […].) as a percentage of control following normalization to β-actin.

[3] = tested on: dendritic spines; experiment: Golgi staining, dendritic spine density and morphology in 3× Tg AD mice
Description: Golgi staining and morphological analysis of dendritic spines. Dendritic spine density and morphology analyses in the brain were conducted using the FD RAPID GOLGISTAIN KIT™ (FD NeuroTechnologies, Ellicott City, Md., USA). Mouse brains were dissected, immersed in Solutions A and B (2 weeks, room temperature, dark conditions), and then transferred to Solution C (24 h, 4° C.). A VT1000S Vibratome (Leica, Bannockburn, Ill., USA) was then used to slice brains 150 μm thick. Bright-field microscopy acquired dendritic images by Axioplan 2 (Zeiss, Oberkochen, Germany). Scion image software (Scion Corporation, Frederick, Md., USA) allowed measurement of spine head width, spine length, and linear density of cortical layers II/III and CA1 of the hippocampus. Images were coded and analyzed blind to experimental conditions. To measure dendritic spine density, we included spines from 0.2 to 2 μmin length, with at least 25 apical oblique (AO) and basal (BS) dendritic observations averaged from each animal (n=4-5 brains for 2-3 months old/group and 6-10 months old/group, n=3 brains for 13-16 months old/group). To measure spine morphology, we included spines up to 1.4 μm in width and 3.2 μm in length.
BTA-EG4 alters dendritic spine density in the cortex and hippocampus. […] In the present study, we investigated whether BTA-EG4 improves dendritic spine density in a mouse model of AD. For this study, we selected the 3× Tg AD mouse model due to its ability to model the progression of human AD (Oddo et al., 2003). […] To assess its effectiveness throughout disease progression, 2-3 month, 6-10 month, and 13-16 month old 3× Tg AD mice were injected with BTA-EG4 (30 mg/kg, i.p.) or vehicle (10% DMSO) daily for 2 weeks. The 2-week duration of treatment was selected because it increased dendritic spine density and improved memory in wild-type mice (Megill et al., 2013). After the treatment, we conducted Golgi staining to measure dendritic spine density (FIGS. 10A-10J, FIGS. 15A-15H and FIGS. 16A-16B).

[4] = hippocampus, 6-10 months, 30 mg/kg daily, 2 weeks

## BTA-EG4
[1]
  dendritic spine density: did not find a statistically significant increase
[2]; 6-10 months
  levels of p-Elk: did not alter
[2]; 13-16 months
  levels of p-Elk: did not alter
[2]; cortex and hippocampus, 6-10 months, 30 mg/kg daily, 2 weeks
  levels of p-ERK and ERK: did not have altered levels
[2]; cortex and hippocampus, 13-16 months
  levels of AMPA receptor subunits: no statistically significant change
[2]; cortex, 6-10 months, 30 mg/kg daily, 2 weeks
  GluA2 levels: only a trend of an increase
[2]; [4]
  GluA1 levels: without a significant change
  GluA2 levels: increased
[3]; 13-16 months
  dendritic spine length: neither the width nor length of dendritic spines changed
  dendritic spine width: neither the width nor length of dendritic spines changed
[3]; CA1, 13-16 months, 30 mg/kg daily, 2 weeks
  hippocampal spine density: only a trend toward an increase
[3]; cortex and hippocampus, 6-10 months, 30 mg/kg
  dendritic spine width: wider
[3]; cortical layers II/III and hippocampus, 6-10 months, 30 mg/kg
  dendritic spine length: longer
[3]; cortical neurons, 13-16 months, 30 mg/kg i.p. daily, 2 weeks
  dendritic spine density: improved
[3]; hippocampus CA1, 2-3 months, 30 mg/kg i.p. daily, 2 weeks
  overall density of dendritic spines: significantly increased
[3]; hippocampus CA1, 6-10 months, 30 mg/kg i.p. daily, 2 weeks
  overall density of dendritic spines: significantly increased
[3]; layers II/III of the cortex, 2-3 months, 30 mg/kg i.p. daily, 2 weeks
  overall density of dendritic spines: significantly increased
[3]; layers II/III of the cortex, 6-10 months, 30 mg/kg i.p. daily, 2 weeks
  overall density of dendritic spines: significantly increased

— US20160000762A1, “IMPROVING COGNITIVE FUNCTION” (THE REGENTS OF THE UNIVERSITY OF CALIFORNIA, priority 2013, published 2016)
